In patent publication US8486431B2 (priority 2005, dated 2013):

Experiments:
[1] = system: Type A influenza strain A/PR8 (H1N1); conditions: mouse, in vivo
[2] = system: Type A influenza strain A/PR8 (H1N1); design: species or system mice; conditions: mouse, in vivo
[3] = target: T1, glucose-6-phosphate dehydrogenase (G6PD) (Saccharomyces cerevisiae, UniProt P11412); test: Protein denaturation experiment: enzyme activity of G6PD reacted with chlorine dioxide; format: biochemical, yeast; conditions: 0.07 ppm chlorine dioxide in PBS pH7; 25° C., 2 minutes; compared with 0 ppm
T1 construct: purchased Sigma Corp
T1 sequence (P11412 whole entry): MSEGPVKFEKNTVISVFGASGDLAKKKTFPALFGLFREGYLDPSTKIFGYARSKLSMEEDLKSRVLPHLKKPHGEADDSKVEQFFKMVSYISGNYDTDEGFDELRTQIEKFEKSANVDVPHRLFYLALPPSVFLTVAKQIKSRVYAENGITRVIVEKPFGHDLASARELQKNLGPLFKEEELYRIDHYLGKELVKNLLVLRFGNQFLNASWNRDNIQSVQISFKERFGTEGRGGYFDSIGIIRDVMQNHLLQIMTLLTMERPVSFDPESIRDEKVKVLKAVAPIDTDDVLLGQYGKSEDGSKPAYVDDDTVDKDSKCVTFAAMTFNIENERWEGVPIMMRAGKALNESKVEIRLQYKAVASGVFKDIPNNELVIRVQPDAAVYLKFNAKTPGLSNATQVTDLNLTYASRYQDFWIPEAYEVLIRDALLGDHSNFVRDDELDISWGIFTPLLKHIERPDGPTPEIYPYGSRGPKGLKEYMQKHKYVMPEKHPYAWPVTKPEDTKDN
Experimental: The enzyme activity of G6PD was determined by observing absorption of NADPH by a spectral photometer, with using NADP and glucose-phosphoric acid as the substrate. Specific reaction conditions were set according to the manufacturer's (Sigma Corp.) instructions.
The concentration values on the horizontal axis are shown as being converted into the unit of ppm. The “specific activity” on the vertical axis represents enzyme activity (unit/mg) per 1 mg of protein

## [O][Cl+][O-] [chlorine dioxide]
[1]
  chlorine dioxide concentration required for preventing influenza virus infection: 0.0001 ppm
  chlorine dioxide gas concentration effective for influenza onset inhibition: at least 0.05 ppm
  deaths compared with 0 ppm group: deaths occurred with delay
  number of onsets of influenza and virus amount in the lung versus control group (0 ppm): no significant difference was found
[2]
  Total virus amount in lung tissues on Day 3 after 10 LD50 virus exposure (TClD50 values): 10^3 TClD50
  lung virus amount relative to that of the control group (0 ppm group): 5%
  total virus amounts in lung after delayed administration: smaller than expected
[3]
  reduction in the enzyme activity of G6PD: about 60%
